Here are results for 1 molecule from US20070027143A1, “Novel substituted 2,3-benzodiazepine derivatives” (priority 2003, published 2007).

Like-named read-outs stand apart in the source and are kept apart here.

One test has as its system AMPA/kainate receptors. Briefly: Inhibition of AMPA induced whole-cell current in acutely isolated cerebellar Purkinje cells (patch clamp). Particulars: 5 μM AMPA, read-out: Inhibition of the ion-currents caused by 5 μM AMPA, IC50. Type of test: cell-based. The method, then: (§1) In the first model the spreading depression caused by glutamate agonists (i.e., AMPA or kainate) was studied, while in the second one the transmembrane ion-current induced by the activation of the AMPA/kainate receptors was measured directly.
The activity of the compounds of the present invention was studied on acutely isolated cerebellar Purkinje cells by measuring the whole-cell current induced by 5 μM AMPA according for example to the method described by Bleakman et al (Neuropharmacology 12:1689 (1996)).
(In general: Patch clamp records ionic current or voltage across a cell membrane.)

For the next test, the system named is Lewis rats. Briefly: Autoimmune encephalomyelitis model, neurological (clinical) symptoms. Format: in vivo. Particulars: Rattus norvegicus, ip, 30 mg/kg ip., read-out: Neurological symptoms (change compared to controls, %). Here is the method:
The compounds were administered intraperitoneally twice a day for 8 days, starting on day 10 after immunization and with an observation period until symptoms were present. 5-15 animals were used in each group. Their weights were 160-180 g (Lewis rats, female) and 180-220 g (Lewis rats, male). The activity of the compounds was determined according to the symptom score values, and compared to those of the control group (see Table 6). Histopathological investigations were carried out on the brain stem, the spinal cord, and the sciatic nerve (Gijbels et al., J. Clin. Invest. 94:2177 (1994)) using 5-10 animal/group.
Compounds of the invention were further investigated in the autoimmune encephalomyelitis model in rats as outlined in this description before, with the variance that 10 animals were used in each group, of weights 140-160 g (Lewis rats, female).

Test [1] deals with BN rats. Briefly: Airway eosinophilia of ovalbumin sensitized, antigen challenged BN rats (BALF eosinophil count). Format: in vivo. The following applies: 3.0 mg/kg po, 2 hours pre-challenge, mean ± SE. The text has this: (§2) Bronchial hyperresponsiveness (BHR) and airway eosinophilia (AEP) are characteristic features of bronchial asthma. BHR is typified by an exaggerated response to a wide variety of stimuli that can induce an increased resistance to airflow in the airways. AEP is a result of prolonged eosinophil infiltration, mast cell, and T cell activation in the airways. In actively (e.g., ovalbumin) immunized rats (e.g., Brown Norway [BN] strain), repeated sensitization followed by antigenic challenge results in lung eosinophilia and bronchial hyperresponsiveness to different spasmogens (e.g., acetylcholine). This is the most frequently employed model for studying potential anti-asthmatic effects of new chemical entities.
(§3) BN rats were actively immunized with allergen (ovalbumin). On day one, rats were sensitized with the subcutaneous administration of ovalbumin suspended in Al(OH)3 (2.5 μg ovalbumin +20 mg Al(OH)3 in 0.5 ml saline). Booster injections (same dose and same route) were given at day 14 and 21. Simultaneously at each occasion 0.25 ml of Bordatella pentussis vaccine was injected intraperitoneally. On day 28, animals were challenged by inhalation of the antigen (vaporized 1% OVA solution for 1 hour). Test compounds were administered orally 2 hours pre-challenge.
(§4) 48 hours following challenge, they were sacrificed by an overdose of urethane (4-5 ml of 15% urethane given i.p.), bronchoalveolar lavage fluid (BALF) was obtained, and tracheae dissected from the animals. Eosinophil cell count (cells/ml BALF) was determined manually using a selective stain for eosinophils and counting the cells in a Buerker chamber. BHR was determined using tracheal rings suspended in an organ bath. After an equilibration period of 30 minutes, cumulative concentration response curves to acetylcholine were determined. Maximal response of control (unchallenged, non-treated) tracheal rings is obtained at 10^−3 M acetylcholine. The height of this response is defined as 100%. All other contractions are expressed as a percentage and related to the control response.

Another test concerns AMPA receptors. Briefly: Inhibition of AMPA induced spreading depression in isolated chicken retina. Format: cell-based. The following applies: AMPA (5 μM). The method, then: as §1
Inhibition of AMPA Induced “Spreading Depression” in Isolated Chicken Retina—
The AMPA antagonistic effect of the compounds of formula (I) or (II) was studied in the in vitro “spreading depression” model (Sheardown Brain Res. 607:189 (1993)). The AMPA antagonists prolong the latency of the development of the “spreading depression” caused by AMPA (5 μM).

Test [2] has as its system CD1 mice. Briefly: Anti-tremor effect, oxotremorine induced tremor. Particulars: Mus musculus; po., Litchfield-Wilcoxon, limits in brackets; read-out: ED50, tremor induced by Oxotremorin 1 mg/kg ip. Type of test: in vivo.
The test system of test [3] is CD1 mice. Briefly: Anticonvulsant activity, bemegride induced seizures. Type of test: in vivo. Particulars: Mus musculus, po, read-out: Bemegride ED50. The procedure, abridged: (§5)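 Read-out: clonic-tonic seizures and lethality after chemical challenge in male CD1 mice, pretreated orally (three doses, ten animals each) typically 60 min earlier.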
Test [4] has as its system CD1 mice. Briefly: Muscle relaxant activity, inclined screen test. Type of test: in vivo. Particulars: Mus musculus, ip.
Test [5] concerns CD1 mice. Briefly: Anti-tremor effect, GYKI 20039 induced tremor. Format: in vivo. Particulars: Mus musculus; po., Litchfield-Wilcoxon, limits in brackets; read-out: ED50, tremor induced by GYKI 20039 10 mg/kg ip.
The subject of test [6] is tumor cell types (colon adenocarcinoma, astrocytoma, breast carcinoma, lung carcinoma and neuroblastoma). Particulars: Rzeski et al.; cited from earlier work.
The test system of test [7] is CD1 mice. Briefly: Muscle relaxant activity, rotarod test. Format: in vivo. Particulars: Mus musculus, ip. Background: In the rotarod test animals must keep their balance on a rotating rod.
Test [8] relates to CD1 mice. Kind of test: Anticonvulsant activity, maximal electroshock seizure (MES) test. Type of test: in vivo. Particulars: Mus musculus, po.
In test [9] the test system is BN rats. Kind of test: Bronchial hyperresponsiveness of ovalbumin sensitized, antigen challenged BN rats (tracheal rings, acetylcholine). Particulars: 3.0 mg/kg po, 2 hours pre-challenge, mean ± SE. Type of test: in vivo.
Text: as §2, §3, §4

Test [10] has as its system CD1 mice. Briefly: Anticonvulsant activity, nicotine induced seizures. The following applies: Mus musculus; po. Format: in vivo. Put shortly:
as §5

Test [11] relates to CD1 mice. Kind of test: Anticonvulsant activity, 4-aminopyridine induced seizures. Type of test: in vivo. The following applies: Mus musculus, po, read-out: 4-AP ED50. The procedure, abridged:
as §5

In test [12] the test system is CD1 mice. Briefly: Anticonvulsant activity, strychnine induced seizures. Type of test: in vivo. Particulars: Mus musculus, po, read-out: Strychnine ED50. Put shortly:
as §5

The subject of test [13] is CD1 mice. Kind of test: Anticonvulsant activity, 3-mercapto-propionic acid induced seizures. Format: in vivo. The following applies: Mus musculus, po, read-out: 3-MPA ED50. Put shortly:
as §5

Test [14] has as its system CD1 mice. Kind of test: Anticonvulsant activity, bicuculline induced seizures. Particulars: Mus musculus, po, read-out: Bicuculline ED50. Type of test: in vivo. Put shortly:
as §5

Test [15] relates to CD1 mice. Kind of test: Anticonvulsant activity, pentetrazole induced seizures. Type of test: in vivo. Particulars: Mus musculus, po, read-out: Pentetrazol ED50. The procedure, abridged:
as §5

Test [16] concerns CD1 mice. Kind of test: Anti-tremor effect, harmaline induced tremor. Type of test: in vivo. The following applies: po., Litchfield-Wilcoxon, limits in brackets.

For the molecule `CC1=NN=C(c2ccc(N)cc2)c2cc3c(cc2C1)OCO3` [GYKI 52466, 5-(4-aminophenyl)-8-methyl-9H-1,3-dioxolo[4,5-h][2,3]benzodiazepine, reference compound], the IC50 (in general, the point on the concentration scale where inhibition reaches its midpoint) in the test with AMPA/kainate receptors stood at 8.8 µM; in the test on AMPA receptors, 9.5 µM. In addition, the change in vivo at 30 mg/kg is -45% in the test with Lewis rats (female rats, 0-8 day); -4% in the test on Lewis rats (female rats, 0-14 day); -1% in the test with Lewis rats (male rats, 0-8 day); -1% in the test on Lewis rats (male rats, 0-14 day). In the test on BN rats [1], the BALF eosinophil number is on record as 0.91 ± 0.13 ×10^6/ml. Also, the ED50 in the test with CD1 mice [2] is 20.5 mg/kg; with CD1 mice [3], 71.9 mg/kg; in the test on CD1 mice [4] it was 47.1 mg/kg; in the test with CD1 mice [5], 37.1 mg/kg; with CD1 mice [7] it was 25.1 mg/kg; in the test on CD1 mice [8] (0.5 h, read-out: MES 30′ ED50), 21.9 mg/kg. The ED50 in the test on CD1 mice [8] (1 h, read-out: MES (MES 60′) ED50) is 37.4 mg/kg; in the test on CD1 mice [10], 71.8 mg/kg; in the test with CD1 mice [11], 43 mg/kg; with CD1 mice [12], 86.7 mg/kg; with CD1 mice [13], 47 mg/kg; in the test on CD1 mice [14], 35 mg/kg. Further, the ED50 in the test on CD1 mice [15] is 120 mg/kg. The “Growth of selected tumor cell types” value in test [6] was “inhibit growth”. Besides, the “MAX: relative contraction compared to the control at a maximal Ach concentration” value in the test with BN rats [9] worked out at 135 ± 105%. The “ED50, tremor induced by Harmaline 40 mg/kg ip.” value in the test on CD1 mice [16] is 38.5(25.7-57.9) mg/kg po.
